Assay results as given in the supplement of paper PMC10331698.
± gives the standard deviation of the averaged measurements.

Assays:
Test in all cases: level (log10 ratio to DMSO vehicle control); higher = higher biomarker level / cell amount than vehicle control
[1] = compound: O=C(O)C=CC(F)(C(F)(F)F)C(F)(F)F [3-(Perfluoroisopropyl)-2-propenoic acid]; settings: in DMSO
Description: (§1)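 BioMAP Diversity Plus panel of 12 human primary cell co-culture systems (3C, 4H, LPS, SAg, BT, BF4T, BE3C, CASM3C, HDF3CGF, KF3CT, MyoF, Mphg). Compounds were added 1 h before stimulation and left for 24 h (MyoF 48 h; BT 72 h for soluble read-outs or 6 d for IgG). Biomarkers were read by ELISA, cytotoxicity by SRB, PBMC viability and proliferation by Alamar Blue. Each well value was divided by the mean of 8 DMSO control wells on the same plate and log10 transformed; duplicate blinded samples were tested at 4 concentrations.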

Hexafluoroamylene glycol = compound: OCC(F)(F)C(F)(F)C(F)(F)CO [Hexafluoroamylene glycol]; settings: in DMSO
Description: as §1

[2] = compound: C=C(C)C(=O)OCCC(F)(F)C(F)(F)C(F)(F)C(F)(F)C(F)(F)C(F)(F)F [6:2 Fluorotelomer methacrylate]; settings: in DMSO
Description: as §1

[3] = compound: O=C(O)C(F)(F)C(F)(F)C(F)(F)C(F)(F)C(F)(F)C(F)(F)C(F)(F)C(F)(F)C(F)(F)C(F)F [11-H-Perfluoroundecanoic acid]; settings: in DMSO
Description: as §1

[4] = compound: NC(=O)C(F)(F)C(F)(F)C(F)(F)C(F)F; settings: in DMSO
Description: as §1

[5] = compound: COC(=O)C(F)(F)C(F)(F)OC(F)(C(F)(F)F)C(F)(F)OC(F)=C(F)F [Methyl perfluoro(3-(1-ethenyloxypropan-2-yloxy)propanoate)]; settings: in DMSO
Description: as §1

[6] = compound: NS(=O)(=O)C(F)(F)C(F)(F)C(F)(F)C(F)(F)C(F)(F)C(F)(F)F [Perfluorohexanesulfonamide]; settings: in DMSO
Description: as §1

[7] = compound: FC(F)(F)C(F)(F)C(F)(F)C(F)(F)C(F)(F)C(F)(F)C(F)(F)I [1-Iodopentadecafluoroheptane]; settings: in DMSO
Description: as §1

[8] = compound: C=CC(=O)OCC(F)(F)C(F)(F)C(F)(F)COC(=O)C=C [1H,1H,5H,5H-Perfluoro-1,5-pentanediol diacrylate]; settings: 6700 nM; in DMSO
Description: as §1

[9] = compound: O=S(=O)(O)CCC(F)(F)C(F)(F)C(F)(F)C(F)(F)C(F)(F)C(F)(F)F [6:2 Fluorotelomer sulfonic acid]; settings: in DMSO
Description: as §1

[10] = compound: O=S(=O)(Cl)C(F)(F)C(F)(F)C(F)(F)C(F)(F)C(F)(F)C(F)(F)C(F)(F)C(F)(F)F [Perfluoro-1-octanesulfonyl chloride]; settings: in DMSO
Description: as §1

Octafluoroadipamide = compound: NC(=O)C(F)(F)C(F)(F)C(F)(F)C(F)(F)C(N)=O [Octafluoroadipamide]; settings: in DMSO
Description: as §1

Nonafluoropentanamide = compound: NC(=O)C(F)(F)C(F)(F)C(F)(F)C(F)(F)F [Nonafluoropentanamide]; settings: in DMSO
Description: as §1

Heptafluorobutyl iodide = compound: FC(F)(F)C(F)(F)C(F)(F)CI [Heptafluorobutyl iodide]; settings: in DMSO
Description: as §1

[11] = compound: FC(F)(F)C(F)(F)C(F)(F)C(F)(F)C(F)(F)C(F)(F)CC1CO1 [3-(Perfluorohexyl)-1,2-epoxypropane]; settings: in DMSO
Description: as §1

[12] = compound: FC(F)(F)C(F)(F)C(F)(F)CC1CO1 [1H,1H-Heptafluorobutyl epoxide]; settings: in DMSO
Description: as §1

[13] = compound: O=S(=O)(F)C(F)(F)C(F)(F)C(F)(F)C(F)(F)C(F)(F)C(F)(F)C(F)(F)C(F)(F)F [Perfluorooctanesulfonyl fluoride]; settings: in DMSO
Description: as §1

[14] = compound: O=S(=O)(O)C(F)(F)C(F)(F)C(F)(F)C(F)(F)C(F)(F)C(F)(F)C(F)(F)C(F)(F)C(F)(F)C(F)(F)F [Sodium perfluorodecanesulfonate]; settings: in DMSO
Description: as §1

[15] = compound: FC(F)(F)C(F)(F)CNCC(F)(F)C(F)(F)F [Bis(1H,1H-perfluoropropyl)amine]; settings: in DMSO
Description: as §1

Q: Which results are given for lMphg:CD40?
A: level (log10) ([1]; 6700 nM): -0.0395 ± 0.053; level (log10) ([1]; 20000 nM): -0.01 ± 0.025; level (log10) ([1]; 60000 nM): -0.0045 ± 0.019; level (log10) (Hexafluoroamylene glycol; 6700 nM): -0.0175 ± 0.0021; level (log10) (Hexafluoroamylene glycol; 20000 nM): -0.002 ± 0.0028; level (log10) (Hexafluoroamylene glycol; 60000 nM): -0.0285 ± 0.039; level (log10) ([2]; 6700 nM): -0.0125 ± 0.016; level (log10) ([2]; 20000 nM): 0.0065 ± 0.023; level (log10) ([2]; 60000 nM): 0.0235 ± 0.005; level (log10) ([3]; 6700 nM): -0.0365 ± 0.005; level (log10) ([3]; 20000 nM): -0.04 ± 0.021; level (log10) ([4]; 6700 nM): -0.026 ± 0.027; level (log10) ([4]; 20000 nM): -0.011 ± 0.0071; level (log10) ([4]; 60000 nM): -0.017 ± 0.0042; level (log10) ([5]; 6700 nM): -0.0295 ± 0.0064; level (log10) ([5]; 20000 nM): -0.0365 ± 0.028; level (log10) ([6]; 6700 nM): -0.02 ± 0.021; level (log10) ([6]; 20000 nM): -0.043 ± 0.031; level (log10) ([6]; 60000 nM): -0.146 ± 0.021; level (log10) ([7]; 6700 nM): -0.0175 ± 0.052; level (log10) ([7]; 20000 nM): -0.0365 ± 0.046; level (log10) [8]: -0.0585 ± 0.015; level (log10) ([9]; 6700 nM): -0.017 ± 0.011; level (log10) ([9]; 20000 nM): -0.022 ± 0.028; level (log10) ([9]; 60000 nM): -0.05 ± 0.033; level (log10) ([10]; 6700 nM): -0.0165 ± 0.019; level (log10) ([10]; 20000 nM): -0.01; level (log10) ([10]; 60000 nM): -0.0065 ± 0.0035; level (log10) (Octafluoroadipamide; 6700 nM): -0.0055 ± 0.0021; level (log10) (Octafluoroadipamide; 20000 nM): -0.0125 ± 0.0035; level (log10) (Octafluoroadipamide; 60000 nM): 0.0155 ± 0.00071; level (log10) (Nonafluoropentanamide; 6700 nM): 0.0255 ± 0.03; level (log10) (Nonafluoropentanamide; 20000 nM): 0.0255 ± 0.029; level (log10) (Nonafluoropentanamide; 60000 nM): -0.0095 ± 0.012; level (log10) (Heptafluorobutyl iodide; 6700 nM): -0.025 ± 0.031; level (log10) (Heptafluorobutyl iodide; 20000 nM): -0.0065 ± 0.013; level (log10) (Heptafluorobutyl iodide; 60000 nM): -0.024 ± 0.0057; level (log10) ([11]; 6700 nM): -0.029 ± 0.0071; level (log10) ([11]; 20000 nM): -0.0195 ± 0.005; level (log10) ([11]; 60000 nM): -0.005 ± 0.0028; level (log10) ([12]; 6700 nM): -0.005 ± 0.025; level (log10) ([12]; 20000 nM): -0.001 ± 0.016; level (log10) ([12]; 60000 nM): 0.0045 ± 0.0021; level (log10) ([13]; 6700 nM): -0.023 ± 0.051; level (log10) ([13]; 20000 nM): -0.0205 ± 0.049; level (log10) ([13]; 60000 nM): -0.0575 ± 0.042; level (log10) ([14]; 1500 nM): -0.0305 ± 0.0078; level (log10) ([14]; 4400 nM): -0.0285 ± 0.016; level (log10) ([14]; 13000 nM): -0.0455 ± 0.012; level (log10) ([14]; 40000 nM): -0.104 ± 0.018; level (log10) ([15]; 6700 nM): 0.006 ± 0.0057; level (log10) ([15]; 20000 nM): 0.006 ± 0.0028; level (log10) ([15]; 60000 nM): -0.0065 ± 0.0092
